# According to ChEMBL document CHEMBL4002566, “S-substituted 3,5-dinitrophenyl 1,3,4-oxadiazole-2-thiols and tetrazole-5-thiols as highly efficient antitubercular agents” (Eur J Med Chem, 2017):
# Columns and labels:
# Staphylococcus aureus [1] = assay: Antibacterial activity against methicillin-resistant Staphylococcus aureus HK5996/08 after 24 hrs by broth microdilution method; assay type: functional; conditions: HK5996/08, 24 h
# Enterococcus sp. = assay: Antibacterial activity against Enterococcus sp. HK14365/08 after 24 hrs by broth microdilution method; assay type: functional; conditions: HK14365/08, 24 h
# [2] = test system: Staphylococcus epidermidis; assay: Antibacterial activity against Staphylococcus epidermidis HK6996/08 after 24 hrs by broth microdilution method; assay type: functional; conditions: HK6996/08, 24 h
# Staphylococcus aureus [3] = assay: Antibacterial activity against Staphylococcus aureus ATCC 6538 after 24 hrs by broth microdilution method; assay type: functional; conditions: ATCC 6538, 24 h
# Aspergillus fumigatus = assay: Antifungal activity against Aspergillus fumigatus 231 after 24 hrs by broth microdilution method; assay type: functional; conditions: Aspergillus fumigatus, 231, 24 h
# Candida tropicalis = assay: Antifungal activity against Candida tropicalis 156 after 24 hrs by broth microdilution method; assay type: functional; conditions: Candida tropicalis, 156, 24 h
# [4] = test system: Trichophyton mentagrophytes; assay: Antifungal activity against Trichophyton mentagrophytes 445 after 72 hrs by broth microdilution method; assay type: functional; conditions: Trichophyton mentagrophytes, 445, 72 h
# Lichtheimia corymbifera = assay: Antifungal activity against Absidia corymbifera 272 after 24 hrs by broth microdilution method; assay type: functional; conditions: Lichtheimia corymbifera, 272, 24 h
# Nakaseomyces glabratus = assay: Antifungal activity against Candida glabrata 20/I after 24 hrs by broth microdilution method; assay type: functional
# Pichia kudriavzevii = assay: Antifungal activity against Candida krusei E28 after 24 hrs by broth microdilution method; assay type: functional; conditions: E28, 24 h
# Candida albicans = assay: Antifungal activity against Candida albicans ATCC 44859 after 24 hrs by broth microdilution method; assay type: functional; conditions: ATCC 44859, 24 h
# Trichosporon asahii = assay: Antifungal activity against Trichosporon asahii 1188 after 24 hrs by broth microdilution method; assay type: functional; conditions: Trichosporon asahii, 1188, 24 h
# Escherichia coli = assay: Antibacterial activity against Escherichia coli ATCC 8739 after 24 hrs by broth microdilution method; assay type: functional
# Klebsiella pneumoniae [5] = assay: Antibacterial activity against extended spectrum beta-lactamase producing Klebsiella pneumoniae HK14368/08 after 24 hrs by broth microdilution method; assay type: functional
# Klebsiella pneumoniae [6] = assay: Antibacterial activity against Klebsiella pneumoniae HK11750/08 after 24 hrs by broth microdilution method; assay type: functional
# Pseudomonas aeruginosa = assay: Antibacterial activity against Pseudomonas aeruginosa ATCC 9027 after 24 hrs by broth microdilution method; assay type: functional
# Mycobacterium kansasii [7] = assay: Antimycobacterial activity against Mycobacterium kansasii 6509/96 clinical isolate after 21 days by micromethod; assay type: functional; conditions: 6509/96, 504 h
# Mycobacterium avium [8] = assay: Antimycobacterial activity against Mycobacterium avium CNCTC My 330/88 after 14 days by micromethod; assay type: functional; conditions: CNCTC My 330/88, 336 h
# Mycobacterium avium [9] = assay: Antimycobacterial activity against Mycobacterium avium CNCTC My 330/88 after 21 days by micromethod; assay type: functional; conditions: CNCTC My 330/88, 504 h
# Mycobacterium kansasii [10] = assay: Antimycobacterial activity against Mycobacterium kansasii CNCTC My 235/80 after 14 days by micromethod; assay type: functional; conditions: CNCTC My 235/80, 336 h
# Mycobacterium kansasii [11] = assay: Antimycobacterial activity against Mycobacterium kansasii CNCTC My 235/80 after 7 days by micromethod; assay type: functional; conditions: CNCTC My 235/80, 168 h
# [12] = test system: Mycobacterium tuberculosis; assay: Antimycobacterial activity against Mycobacterium tuberculosis CNCTC My 331/88 after 14 days by micromethod; assay type: functional; conditions: CNCTC My 331/88, 336 h
# Mycobacterium kansasii [13] = assay: Antimycobacterial activity against Mycobacterium kansasii 6509/96 clinical isolate after 7 days by micromethod; assay type: functional; conditions: 6509/96, 168 h
# Mycobacterium kansasii [14] = assay: Antimycobacterial activity against Mycobacterium kansasii CNCTC My 235/80 after 21 days by micromethod; assay type: functional; conditions: CNCTC My 235/80, 504 h
# [15] = test system: Mycobacterium tuberculosis; assay: Antimycobacterial activity against Mycobacterium tuberculosis CNCTC My 331/88 after 21 days by micromethod; assay type: functional; conditions: CNCTC My 331/88, 504 h
# Mycobacterium kansasii [16] = assay: Antimycobacterial activity against Mycobacterium kansasii 6509/96 clinical isolate after 14 days by micromethod; assay type: functional; conditions: 6509/96, 336 h
# [17] = Cytotoxicity against MDCK cells assessed as cell viability at 30 uM after 48 hrs by MTS assay relative to control; assay type: cell-based, Canis lupus familiaris; conditions: dog, read-out: Activity
# [18] = Cytotoxicity against human HuH7 cells assessed as cell viability at 30 uM after 48 hrs by MTS assay relative to control; assay type: cell-based, Huh-7; conditions: read-out: Activity
# [19] = Cytotoxicity against human HepG2 cells assessed as cell viability at 30 uM after 48 hrs by MTS assay relative to control; assay type: cell-based; conditions: read-out: Activity
# HepG2 = assay: Cytotoxicity against human HepG2 cells assessed as cell viability after 48 hrs by MTS assay; assay type: cell-based; conditions: HepG2, 48 h
# [20] = Cytotoxicity against human A431 cells assessed as cell viability at 30 uM after 48 hrs by MTS assay relative to control; assay type: cell-based, A-431; conditions: read-out: Activity
# MDCK = assay: Cytotoxicity against MDCK cells assessed as cell viability after 48 hrs by MTS assay; assay type: cell-based; conditions: Canis lupus familiaris
# [21] = Selectivity index, ratio of IC50 for human HepG2 cells to MIC for Mycobacterium tuberculosis; assay type: toxicity; conditions: read-out: Selectivity Index
# Huh-7 = assay: Cytotoxicity against human HuH7 cells assessed as cell viability after 48 hrs by MTS assay; assay type: cell-based; conditions: Huh-7, 48 h
# A-431 = assay: Cytotoxicity against human A431 cells assessed as cell viability after 48 hrs by MTS assay; assay type: cell-based; conditions: A-431, 48 h
Compound,MIC (Mycobacterium kansasii [7]) [µM],MIC (Mycobacterium avium [8]) [µM],MIC (Mycobacterium avium [9]) [µM],MIC (Mycobacterium kansasii [10]) [µM],MIC (Mycobacterium kansasii [11]) [µM],MIC [12] [µM],MIC (Mycobacterium kansasii [13]) [µM],MIC (Mycobacterium kansasii [14]) [µM],MIC [15] [µM],MIC (Mycobacterium kansasii [16]) [µM],also measured
CN[C@H](CC(C)C)C(=O)N[C@H]1C(=O)N[C@@H](CC(N)=O)C(=O)N[C@H]2C(=O)N[C@H]3C(=O)N[C@H](C(=O)N[C@H](C(=O)O)c4cc(O)cc(O)c4-c4cc3ccc4O)[C@H](O)c3ccc(c(Cl)c3)Oc3cc2cc(c3O[C@@H]2O[C@H](CO)[C@@H](O)[C@H](O)[C@H]2O[C@H]2C[C@](C)(N)[C@H](O)[C@H](C)O2)Oc2ccc(cc2Cl)[C@H]1O [VANCOMYCIN],,,,,,,,,,,MIC (Staphylococcus aureus [1]): 0.35 µM; MIC (Enterococcus sp.): 0.7 µM; MIC [2]: 0.35 µM; MIC (Staphylococcus aureus [3]): 0.35 µM
C[C@@H]1[C@H](O)[C@@H](C)/C=C/C=C/C=C/C=C/C=C/C=C/C=C/[C@H](O[C@@H]2O[C@H](C)[C@@H](O)[C@H](N)[C@@H]2O)C[C@@H]2O[C@](O)(C[C@@H](O)C[C@@H](O)[C@H](O)CC[C@@H](O)C[C@@H](O)CC(=O)O[C@H]1C)C[C@H](O)[C@H]2C(=O)O [AMPHOTERICIN B],,,,,,,,,,,MIC (Aspergillus fumigatus): 0.54 µM; MIC (Candida tropicalis): 0.54 µM; MIC [4]: 0.54 µM; MIC (Lichtheimia corymbifera): 1 µM; MIC (Nakaseomyces glabratus): 0.54 µM; MIC (Pichia kudriavzevii): 1 µM; MIC (Candida albicans): 0.54 µM; MIC (Trichosporon asahii): 0.27 µM
GENTAMICIN,,,,,,,,,,,MIC (Escherichia coli): 0.26 µM; MIC (Klebsiella pneumoniae [5]): 0.26 µM; MIC (Klebsiella pneumoniae [6]): 0.26 µM; MIC (Pseudomonas aeruginosa): 1 µM
COc1ccc(CSc2nnc(-c3cc([N+](=O)[O-])cc(C(F)(F)F)c3)o2)cc1,2,> 250,> 250,4,2,0.5,1,4,0.5,2,
Nc1cc(-c2nnc(SCc3ccc(Br)cc3)o2)cc([N+](=O)[O-])c1,125,125,125,125,125,125,125,125,125,125,
CC(=O)Nc1cc(-c2nnc(SCc3ccccc3)o2)cc([N+](=O)[O-])c1,> 1000,> 1000,> 1000,> 1000,> 1000,> 1000,> 1000,> 1000,> 1000,> 1000,
O=[N+]([O-])c1cc(-c2nnc(SCc3ccc(Cl)c(Cl)c3)o2)cc(C(F)(F)F)c1,1,> 250,> 250,1,0.5,0.5,0.5,1,0.5,1,
O=[N+]([O-])c1cc(O)cc(-c2nnc(SCc3ccc(Cl)c(Cl)c3)o2)c1,> 250,> 250,> 250,> 250,> 250,> 250,> 250,> 250,> 250,> 250,
O=[N+]([O-])c1cc(-c2nnc(SCc3cccc(Cl)c3)o2)cc([N+](=O)[O-])c1,0.06,4,8,0.06,0.06,0.03,0.03,0.06,0.06,0.06,"viability at 48 h, 30 µM [17]: 105%; viability at 48 h, 30 µM [18]: 158%; viability at 48 h, 30 µM [19]: 129%; IC50 (HepG2): > 30 µM; viability at 48 h, 30 µM [20]: 105%; IC50 (MDCK): > 30 µM; selectivity ratio [21]: > 1000; IC50 (Huh-7): > 30 µM; IC50 (A-431): > 30 µM"
OC(Cn1cncn1)(Cn1cncn1)c1ccc(F)cc1F [FLUCONAZOLE],,,,,,,,,,,MIC (Aspergillus fumigatus): > 500 µM; MIC (Candida tropicalis): 1.6 µM; MIC [4]: 105 µM; MIC (Lichtheimia corymbifera): > 500 µM; MIC (Pichia kudriavzevii): 105 µM; MIC (Candida albicans): 0.82 µM; MIC (Trichosporon asahii): 210 µM
COc1ccc(CSc2nnc(-c3cc(N)cc([N+](=O)[O-])c3)o2)cc1,250,250,250,250,250,125,250,250,125,250,
O=[N+]([O-])c1cc(-n2nnnc2SCc2ccccc2)cc([N+](=O)[O-])c1,2,4,8,2,1,0.5,1,4,1,2,
O=[N+]([O-])c1cc(-c2nnc(SCc3ccccc3)o2)cc([N+](=O)[O-])c1,0.5,4,4,0.5,0.25,0.5,0.25,0.5,0.5,0.5,
Nc1cc(-c2nnc(SCc3ccccc3)o2)cc([N+](=O)[O-])c1,250,250,250,250,250,250,250,250,250,250,
